# A melting point compilation (Tetko et al.)
row,melting point,Structure (SMILES)
1,197 to 199 °C,CCc1nc(C(=O)O)nn1-c1c(Cl)cccc1Cl
2,154 to 156 °C,O=C(O)CSc1ncn[nH]1
3,266 to 268 °C,Cc1cc(C(=O)O)nc2nc(O)[nH]c(=O)c12
4,55 to 57 °C,O=c1[nH]ccs1
5,135 to 137 °C,CC(Sc1ncccn1)C(=O)O (stereo unspecified)
6,152 to 154 °C,CC1CN(C(=O)c2cnn(C)c2N)CC(C)O1 (stereo unspecified)
7,56 to 58 °C,COCCOc1cc2c(cc1CO)OCO2
8,68 to 70 °C,Cc1ccccc1CCNC(=O)CCl
9,186 to 188 °C,N#Cc1ccc(N2CCOC2=O)nc1
10,239 to 241 °C,Cc1nc2ccccc2c(=O)n1CC(=O)O
11,61 to 63 °C,CS(=O)(=O)NCCCN
12,256 to 258 °C,O=C(O)c1cc(=O)n(-c2ccccc2)[nH]1
13,207 to 209 °C,O=C1CCc2cc(C(=O)c3ccccc3)ccc2N1
14,96 to 98 °C,CCCC(=O)N1CCCC(C(=O)O)C1 (stereo unspecified)
15,228 to 230 °C,O=C(O)c1cccc(NC(=O)C2CCCCC2)c1
16,146 to 148 °C,O=C(O)c1ccc(Oc2cccc(F)c2)cc1
17,247 to 249 °C,COc1ccc(C)cc1-c1nnc(S)n1N
18,107 to 109 °C,O=Cc1ccc(-c2ccncc2)cc1F
19,72 to 74 °C,NC(CCCO)c1ccccc1 (stereo unspecified)

row,melting point,Structure (SMILES)
1,40 to 42 °C,CC(CSc1ccccc1)C(=O)O (stereo unspecified)
2,119 to 121 °C,COC(=O)C(N)Cc1c[nH]c2ccc(Br)cc12 (stereo unspecified)
3,128 to 130 °C,CC(Cl)C(=O)NCC(=O)Nc1ccc(F)c(F)c1F (stereo unspecified)
4,85 to 87 °C,CCOC(=O)CC(C)(O)c1cccc(O)c1 (stereo unspecified)
5,36 to 38 °C,O=S(=O)(CCCBr)c1ccc(F)cc1
6,149 to 151 °C,Cc1cc(C=O)c(C)n1-c1cccc([N+](=O)[O-])c1
7,181 to 183 °C,CNc1ncccc1C(N)=O
8,134 to 136 °C,CC(C)(C)OC(=O)N1CC=C(c2ccc(O)cc2)CC1
9,218 to 220 °C,O=C(O)c1ccc(I)c(Cl)c1
10,59 to 61 °C,COC(=O)c1cc([N+](=O)[O-])c(F)cc1Cl
11,195 to 197 °C,CCNC(=O)c1ccc(NC2CCOCC2)c(C)c1
12,93 to 95 °C,N#CCC(=O)NCc1ccco1
13,289 to 291 °C,Cc1cc(C(=O)O)c2ccc(Br)cc2n1
14,152 to 154 °C,Cc1cc(C(=O)O)nn1-c1ccc(F)cc1
15,165 to 167 °C,Cc1ccc(NS(=O)(=O)c2cc([N+](=O)[O-])ccc2NN)c(C)c1
16,309 to 311 °C,O=C(O)c1cc(/C=C/c2ccc(Br)cc2)nc2ccc(Br)cc12
17,126 to 128 °C,CN(C)C(=O)c1cccc(O)c1
18,246 to 250 °C,CNS(=O)(=O)c1ccc(C(=O)O)cc1
19,258 to 260 °C,NC(=O)c1ccc(-c2nn[nH]n2)cc1

row,melting point,Structure (SMILES)
1,115 to 117 °C,Clc1ncnc2c1nnn2-c1ccccc1
2,175 to 177 °C,Cc1cc(C(=O)O)cc(C)c1OCC(=O)N1CCCCC1
3,94 to 96 °C,COc1ccccc1CNC(=O)CCl
4,139 to 141 °C,N#Cc1ccccc1NC(=O)CCCC(=O)O
5,219 to 221 °C,COc1cc(OC)cc(C(=O)Nc2ccc(C(=O)O)c(O)c2)c1
6,127 to 129 °C,COC(=O)c1cc(N)c(OC)c(OC)c1
7,54 to 56 °C,N#CC1(N)CCSC1 (stereo unspecified)
8,132 to 134 °C,CS(=O)(=O)c1ccc(N)cc1
9,124 to 126 °C,COCCOc1ccc(Cl)cc1S(N)(=O)=O
10,96 to 98 °C,O=S(=O)(Cl)Cc1noc2ccccc12
11,239 to 241 °C,Cn1cc(NS(=O)(=O)c2ccsc2C(=O)O)cn1
12,60 to 62 °C,COC(=O)CCCN1C(=O)NC(C)(C)C1=O
13,169 to 171 °C,Cc1nn(C)c(Cl)c1CC(=O)O
14,220 to 222 °C,CN1C(=O)N(CC(=O)O)C(=O)C12CCCCC2
15,177 to 179 °C,COC(=O)Nc1ccccc1C(=O)O
16,307 to 309 °C,O=C(O)c1ccc2[nH]c(=O)oc2c1
17,34 to 36 °C,CS(=O)(=O)CBr
18,64 to 66 °C,CC(=O)c1cncs1
19,175 to 177 °C,CN1C(=O)CNC(=O)c2ccccc21

# More lines, now with the values behind:
row,Structure (SMILES),melting point
1,NS(=O)(=O)c1cnn(CCC(=O)O)c1,126 to 128 °C
2,O=[N+]([O-])c1cccc(-c2cn[nH]c2)c1,154 to 156 °C
3,O=C(c1ccc(Cl)cc1)c1ccc2c(c1)OCO2,128 to 130 °C
4,Cc1cc(N2CCCS2(=O)=O)ccc1Br,131 to 133 °C
5,CCS(=O)(=O)NCCC(=O)O,63 to 65 °C
6,CC(=O)c1c(C)nc2sccn12,132 to 134 °C
7,CCOC(=O)COc1ccccc1C(C)=O,44 to 46 °C
8,Nc1ccc(Cl)cc1C(=O)Nc1ccncc1,169 to 171 °C
9,O=Cc1cnc2ccc(Br)cn12,162 to 164 °C
10,NC(=O)CCc1nnc(S)n1Cc1ccco1,204 to 206 °C
11,CN(C)C(=O)CSc1ccccc1C(=O)O,< 17 °C
12,CC1(c2ccc(F)cc2Cl)NC(=O)NC1=O (stereo unspecified),214 to 216 °C
13,O=C(O)c1nc(-c2cccs2)n(-c2ccc(F)cc2)n1,196 to 198 °C
14,O=C1CSc2ccc(C(=O)O)cc2N1,251 to 253 °C
15,NC(=S)c1cccc(NC(=O)C2CC2)c1,181 to 183 °C
16,CC(C)CNCC(=O)O,198 to 200 °C
17,Cn1c(=O)[nH]c(=O)c2cc(C(=O)O)cnc21,316 to 318 °C
18,COC(=O)CNS(=O)(=O)c1ccc(N)cc1,78 to 80 °C
19,O=S(=O)(Cl)c1ccc(OCC(F)F)c2ccccc12,115 to 117 °C
20,CC(C)(C)OC(=O)NC1(C(=O)O)Cc2ccccc2C1,162 to 164 °C
21,CCCc1noc2ncc(C(=O)O)cc12,174 to 176 °C
22,NNC(=O)CNc1ccccc1,126 to 128 °C
23,NC(=NO)c1cc(Br)cs1,132 to 134 °C

row,Structure (SMILES),melting point
1,Fc1ccc(Oc2ccc(Cl)nn2)c(F)c1,113 to 115 °C
2,Sc1nc(-c2ccccn2)no1,146 to 148 °C
3,CCOCCNC(=O)c1ccc(Br)cc1,99 to 101 °C
4,Cn1ncc2c(N3CCNCC3)ncnc21,64 to 66 °C
5,CC(C)c1nccc(O)n1,239 to 241 °C
6,O=C(CCN1CCOCC1)c1ccc2ccccc2c1,67 to 69 °C
7,CCOC(=O)c1c(-c2ccccc2)oc2ccc(O)cc12,152 to 154 °C
8,[N-]=[N+]=NC1(c2ccc(F)cc2)CCOCC1,63 to 65 °C
9,Nc1ncc(-c2cccc(F)c2)s1,168 to 170 °C
10,Nc1c(C(=O)O)cc([N+](=O)[O-])cc1[N+](=O)[O-],266 to 268 °C
11,Oc1ccc(-n2cnnn2)cc1,209 to 211 °C
12,Nc1nc(N)nc(CO)n1,269 to 271 °C
13,CCc1c(C)nc2ccccc2c1O,279 to 281 °C
14,CC(C)(C)NC(=O)CCl,75 to 77 °C
15,CNS(=O)(=O)c1ccccc1N,53 to 55 °C
16,Nc1ccc(O)c(S(N)(=O)=O)c1,169 to 171 °C
17,CC(C(=O)O)S(=O)(=O)c1ccc(F)cc1 (stereo unspecified),117 to 119 °C
18,CC1CCc2sc(C(=O)NN)cc2C1 (stereo unspecified),122 to 124 °C
19,CC(C)Nc1ncccc1C(=O)O,169 to 171 °C
20,COC(=O)c1cc2cccc(Br)c2o1,76 to 78 °C
21,O=C(O)Cc1ccon1,84 to 86 °C
22,CN1CCN(S(=O)(=O)c2ccc(C(=O)NN)cc2)CC1,170 to 172 °C
23,O=C(O)CNS(=O)(=O)c1ccc(Cl)cc1,177 to 179 °C

row,Structure (SMILES),melting point
1,CS(=O)(=O)Nc1cccc(C#N)c1,154 to 156 °C
2,Nc1cc(Br)c(F)cc1Cl,71 to 73 °C
3,O=C(O)c1cc(Cl)cc(S(=O)(=O)Cl)c1F,162 to 164 °C
4,CC(c1nnc(S)n1-c1ccc(F)cc1)N1CCCCC1 (stereo unspecified),115 to 117 °C
5,CC(C)Sc1ccc(C(=O)O)cc1,139 to 141 °C
6,O=C1C=C(Br)C(=O)N1,151 to 153 °C
7,Cc1cccc2[nH]cc(CC(=O)O)c12,149 to 151 °C
8,CN(C)S(=O)(=O)c1ccc(O)c(N)c1,154 to 156 °C
9,Sc1nc2cc(Br)cnc2[nH]1,324 to 326 °C
10,Cc1nc2ncnn2c(C)c1CCC(=O)O,224 to 226 °C
11,CC(C)(C)OC(=O)N1CC2CNCC2C1 (stereo unspecified),29 to 31 °C
12,CCOC(=O)c1sc(SC)nc1N,80 to 82 °C
13,Clc1nc(-c2cccc(Oc3ccccc3)c2)no1,50 to 52 °C
14,O=C(O)C1CCN(S(=O)(=O)c2ccc3c(c2)CCC3)CC1,170 to 172 °C
15,CS(=O)(=O)N1CCN(S(=O)(=O)Cl)CC1,222 to 224 °C
16,O=S1(=O)NC=Nc2ccccc21,222 to 224 °C
17,CC(C)NC(=O)C1CCCC(N)C1 (stereo unspecified),126 to 128 °C
18,Cn1ccc2ccnc(Cl)c21,57 to 59 °C
19,CN(C1CCCCC1)S(=O)(=O)c1ccc(C(=O)O)cc1,213 to 215 °C
20,O=C(O)c1cccc(N2CCOC2=O)c1,214 to 216 °C
21,O=C(O)CCc1ccc(F)cc1F,108 to 110 °C
22,Cn1nc(Br)c(=O)n(C)c1=O,95 to 97 °C
23,Clc1ccc(OCC2CO2)cc1 (stereo unspecified),31 to 33 °C

row,Structure (SMILES),melting point
1,O=Cc1ccnc2[nH]ccc12,169 to 171 °C
2,CC(=O)c1c[nH]c(C(=O)O)c1,201 to 203 °C
3,Cc1cc(F)c(S(N)(=O)=O)cc1[N+](=O)[O-],159 to 161 °C
4,NC(=S)N1CCc2sccc2C1,109 to 111 °C
5,N#C/C=C/c1ccc(Cl)cc1,45 to 47 °C
6,CCC(=O)Nc1cccc(C(=O)O)c1,229 to 231 °C
7,COC(=O)c1ccc(Cl)c(N)c1,81 to 83 °C
8,Cc1nc(-c2ccsc2)ccc1C(=O)O,174 to 176 °C
9,CNc1cc(C(=O)OC)ccc1N,79 to 81 °C
10,Oc1ccc2nc[nH]c2c1,215 to 217 °C
11,Cc1cc(CC#N)no1,36 to 38 °C
12,O=C(NC1CCN(Cc2ccccc2)CC1)c1ccco1,158 to 160 °C
13,CC(C)(C)OC(=O)Nc1cccc(C#N)c1,127 to 129 °C
14,Nc1ccc(Oc2ccccc2)cc1C(=O)O,138 to 140 °C
15,CC(C)Nc1ccc(Br)cc1[N+](=O)[O-],97 to 99 °C
16,CCCCN1C(=O)c2ccc(C(=O)O)cc2C1=O,152 to 154 °C
17,COc1ccc(CC(N)=NO)cc1,109 to 111 °C
18,O=C(O)CCc1ncc(-c2ccccc2Cl)o1,184 to 186 °C
19,C/C(CC(=O)c1ccccc1)=N\c1ccccc1,110 to 112 °C
20,O=C(O)c1cc([N+](=O)[O-])ccc1Sc1nnnn1-c1ccccc1,218 to 220 °C
